Entries after “also recorded” stand apart in the source; their conditions may differ. Where two headings read alike, the source gives them in different places.

Series [1] concerns asthma patients. To be noted: cited from earlier work; for safety and tolerability in chronic use: used every day over a continuous period of years.
In series [2] the test system is patients who suffered from migraine without aura. The series is described as follows: Open-label clinical trial of daily montelukast in long-term migraine sufferers.
Series [3] deals with asthma patients. To be noted: cited from earlier work.
Another series has as its system LTC4 receptors. To be noted: cited from earlier work.
In a further series the test system is LTE4 receptors. To be noted: cited from earlier work.
Another series has as its target T1, LTD4 receptors (Homo sapiens, UniProt Q9Y271).
T1 sequence (Q9Y271 1-337): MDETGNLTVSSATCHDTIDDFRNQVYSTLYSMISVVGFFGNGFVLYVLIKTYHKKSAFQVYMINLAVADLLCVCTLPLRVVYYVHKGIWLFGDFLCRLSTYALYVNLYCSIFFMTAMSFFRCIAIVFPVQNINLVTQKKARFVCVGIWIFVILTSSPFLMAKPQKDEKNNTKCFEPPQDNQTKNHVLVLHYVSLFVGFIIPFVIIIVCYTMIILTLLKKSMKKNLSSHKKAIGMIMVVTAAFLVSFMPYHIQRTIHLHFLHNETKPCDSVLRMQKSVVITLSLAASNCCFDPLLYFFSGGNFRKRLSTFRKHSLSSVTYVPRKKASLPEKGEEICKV
To be noted: cited from earlier work.

The subject of the next series is patients with migraines. The series is described as follows: Post-publication and unsolicited patient/physician reports, chronic and emergent migraine treatment. It is filed as in vivo, human. To be noted: unsolicited letters, comments, website posting. An excerpt:
The Applicant herein (Sheftell) initially published their leukotriene-migraine findings in abstract form and as a poster session in mid-1999, at a conference of physicians who specialize in treating headaches. That presentation was summarized shortly thereafter in Family Practice News, a newsletter for physicians, and it was followed in February 2000 by a full article in a refereed journal (Sheftell et al, “Montelukast in the prophylaxis of migraine: “potential role for leukotriene modifiers,” Headache 40: 158-63 (2000)).

Regarding `CC(C)(O)c1ccccc1CC[C@@H](SCC1(CC(=O)O)CC1)c1cccc(/C=C/c2ccc3ccc(Cl)cc3n2)c1` [montelukast], the “safety and tolerability in chronic use” value in the series on asthma patients [1] is “generally safe, well-tolerated, and free of serious side effects”. The “adverse events reported by patients” value in series [2] (3-month treatment, 17 patients) is on record as “no adverse events were reported; also recorded: None of the patients reported any adverse effects”. Moreover, the “patients reporting a decrease in the number of moderate headaches” value in series [2] (all reporting patients) was found to be 70%. The “number of mild headaches reported during treatment” value in series [2] (mild category, baseline 1.53, mean per month (FIG. 2)) turned out to be 2.02. Moreover, the “mean number of moderate attacks per month during treatment” value in series [2] (moderate category, baseline 5.5, not statistically significant) stood at 4.68 attacks per month. Moreover, in series [2] (montelukast 10 mg tablets daily, 3-month treatment vs 2-month baseline, 17 patients), the “patients showing a greater than 60% reduction in the frequency of severe attacks” value is recorded as 41%. Further, the “patients with reduction in frequency of severe attacks after dose escalation” value in series [2] (of 4 patients escalated from 10 mg once daily to 10 mg twice daily) is 4 patients. For the same molecule, the “patients with a 33% or greater reduction in the frequency of severe attacks” value in series [2] (of the remaining 15 patients) turned out to be 13 patients. Besides, the “mean number of severe attacks per month during treatment” value in series [2] (severe category, baseline 2.78, p<0.025) worked out at 1.31 attacks per month. The “asthma patients reporting headaches” value in the series on asthma patients [3] (nearly 2000 asthma patients tested) is reported as 18.4%.
As to `COc1cc(C(=O)NS(=O)(=O)c2ccccc2C)ccc1Cc1cn(C)c2ccc(NC(=O)OC3CCCC3)cc12` [zafirlukast], the “blocking of LTC4 receptors” value with LTC4 receptors is “do not appear to block”. For the same molecule, in the series with asthma patients [1] (tablets, daily oral), the “time of daily oral ingestion before noticeable effects in reducing the frequency of asthma attacks” value is listed as “about 4 weeks”. In the series with asthma patients [1], the “safety and tolerability in chronic use” value is “generally safe, well-tolerated, and free of serious side effects”. The “blocking / activity at LTE4 receptors” value in the series with LTE4 receptors is “appear to block; also recorded: some level of activity”. Besides, on LTD4 receptors, the “blocking / activity at LTD4 receptors” value was “appear to block; also recorded: some level of activity”. In addition, the “asthma patients reporting headaches” value with asthma patients [3] (more than 4000 asthma patients tested) was 12.9%. For the same molecule, in the series with patients with migraines, the “reported outcome of chronic daily use for migraines” value is “benefitted more from that treatment than from any other treatment”.
On to `CC(c1cc2ccccc2s1)N(O)C(N)=O` (stereo not drawn) [zileuton], for which, in the series on asthma patients [3] (zileuton 4 times daily at 600 mg, placebo 24.0%), the “users reporting headaches as unwanted side effect” value is listed as 24.6%.

Values taken from patent US20040019080A1, “Prevention and treatment of migraine and other recurrent headaches using leukotriene LTD4 receptor blocker drugs” (priority 1998, published 2004).
